Experimental data: ChEMBL document CHEMBL1201862, “PubChem BioAssay data set” (2004)
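Where inhibition never reached the appropriate level, the endpoint shown equals the highest concentration tested. Otherwise, values were interpolated linearly from a five-concentration, 48-hour dose response in 96-well plates. At the GI50, growth is halved.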 The source made the active and inactive calls. No stated cut-off is given here; in the data, active = GI50 up to about 1.1 µM and inactive = higher.

What was measured:
Experiment in all cases: DTP human tumour cell line panel, 48 h
MOLT-4 = tested on: MOLT-4
NCI-H522 = tested on: NCI-H522
SF-268 = tested on: SF-268
UACC-62 = tested on: UACC-62
HCT-116 = tested on: HCT-116
DU-145 = tested on: DU-145
HOP-62 = tested on: HOP-62
KM12 = tested on: KM12
MDA-MB-435 = tested on: MDA-MB-435
Malme-3M = tested on: Malme-3M
SK-MEL-28 = tested on: SK-MEL-28
OVCAR-4 = tested on: OVCAR-4
HT-29 = tested on: HT-29
CCRF-CEM = tested on: CCRF-CEM
SK-MEL-5 = tested on: SK-MEL-5
UACC-257 = tested on: UACC-257
HCT-15 = tested on: HCT-15
SK-MEL-2 = tested on: SK-MEL-2
OVCAR-8 = tested on: OVCAR-8
SF-539 = tested on: SF-539

Row | SMILES | GI50 (MOLT-4) | GI50 (NCI-H522) | GI50 (SF-268) | GI50 (UACC-62) | GI50 (HCT-116) | GI50 (DU-145) | GI50 (HOP-62) | GI50 (KM12) | GI50 (MDA-MB-435) | GI50 (Malme-3M) | GI50 (SK-MEL-28) | GI50 (OVCAR-4) | GI50 (HT-29) | GI50 (CCRF-CEM) | GI50 (SK-MEL-5) | GI50 (UACC-257) | GI50 (HCT-15) | GI50 (SK-MEL-2) | GI50 (OVCAR-8) | GI50 (SF-539)
1 | CC1(C)OC2OC(COC(=O)C=[N+]=[N-])C3OC(C)(C)OC3C2O1 (configuration not stated) | > 10 µM (inactive) | > 100 µM (inactive) | > 100 µM (inactive) | > 100 µM (inactive) | > 100 µM (inactive) | > 100 µM (inactive) | > 100 µM (inactive) | > 100 µM (inactive) | > 100 µM (inactive) | > 100 µM (inactive) | > 100 µM (inactive) | > 100 µM (inactive) | > 100 µM (inactive) | > 100 µM (inactive) | > 100 µM (inactive) | > 100 µM (inactive) | > 100 µM | > 100 µM (inactive) |  | 
2 | CCN(CC)Cc1ccc(C(=S)Nc2ccc(Cl)cc2)s1 | 4.54 µM (inactive) | 11.4 µM (inactive) | 11.3 µM (inactive) | 9.57 µM (inactive) | 10.5 µM (inactive) | 15 µM (inactive) | 16.3 µM (inactive) | 11.9 µM (inactive) | 9.91 µM (inactive) |  | 6.92 µM (inactive) | 10 µM (inactive) | 2.91 µM (inactive) | 11.9 µM (inactive) | 4.24 µM (inactive) | 4.81 µM (inactive) | 10.7 µM | 15.1 µM (inactive) | 3.75 µM (inactive) | 13.9 µM (inactive)
3 | O=Nc1c(-c2c(O)[nH]c3ccc(I)cc23)[nH]c2ccccc12 |  | 2.82 µM (inactive) | 4.42 µM (inactive) | 2.69 µM (inactive) | 3.01 µM (inactive) | 3.35 µM (inactive) |  | 0.282 µM (active) | 4.55 µM (inactive) |  | 4.32 µM (inactive) | 3.41 µM (inactive) | 3.48 µM (inactive) | 2.08 µM (inactive) | 4.12 µM (inactive) | > 31.5 µM (inactive) | 3.21 µM | 1.99 µM (inactive) | 4.95 µM (inactive) | 7.03 µM (inactive)
4 | O=c1cnn(C/C=C/CO)c(=O)[nH]1 |  | > 100 µM (inactive) | > 100 µM (inactive) |  |  | > 100 µM (inactive) | > 100 µM (inactive) | > 100 µM (inactive) | > 100 µM (inactive) | > 100 µM (inactive) | > 100 µM (inactive) |  |  | > 100 µM (inactive) | > 100 µM (inactive) | > 100 µM (inactive) | > 100 µM | > 100 µM (inactive) | > 100 µM (inactive) | 
5 | CC(=O)O[C@H]1CC[C@@]2(C)C(=CC[C@@H]3[C@@H]2CC[C@]2(C)Nc4c(cnn4S(C)(=O)=O)C[C@@H]32)C1 | 20.1 µM (inactive) | 41.1 µM (inactive) |  | 47.3 µM (inactive) |  | 49.5 µM (inactive) | 89.9 µM (inactive) | 52.8 µM (inactive) | 46.8 µM (inactive) | > 100 µM (inactive) | > 100 µM (inactive) |  | 21.9 µM (inactive) | 37.2 µM (inactive) | 16.4 µM (inactive) |  | 43.6 µM | > 100 µM (inactive) | > 100 µM (inactive) | 
6 | CC[C@@]1(O)C(=O)OCc2c1cc1n(c2=O)Cc2c-1nc1ccccc1c2CC[Si](C)(C)C [COSITECAN] | < 0.01 µM (active) | < 0.01 µM (active) | < 0.01 µM (active) | < 0.01 µM (active) | < 0.01 µM (active) | < 0.01 µM (active) | < 0.01 µM (active) | 0.0367 µM (active) | < 0.01 µM (active) | < 0.01 µM (active) |  | 0.0998 µM (active) | < 0.01 µM (active) |  | < 0.01 µM (active) | < 0.0391 µM (active) | 0.0789 µM | 0.053 µM (active) | < 0.01 µM (active) | < 0.01 µM (active)
7 | Cc1cc(NS(=O)(=O)c2ccc(/N=[N+](\[O-])c3ccc(S(=O)(=O)Nc4cc(C)on4)cc3)cc2)no1 | > 100 µM (inactive) | > 100 µM (inactive) | > 100 µM (inactive) | > 100 µM (inactive) | > 100 µM (inactive) | > 100 µM (inactive) | > 100 µM (inactive) |  | > 100 µM (inactive) | > 100 µM (inactive) |  | > 100 µM (inactive) | > 100 µM (inactive) | > 100 µM (inactive) | > 100 µM (inactive) | > 100 µM (inactive) | > 100 µM | > 100 µM (inactive) | > 100 µM (inactive) | > 100 µM (inactive)
8 | COc1ccc2c(c1OC)C(=O)N1C2=Cc2c(cc3c(c2OC)OCO3)CC1N(C)C (configuration not stated) | 34.5 µM (inactive) | 28.9 µM (inactive) | 63.5 µM (inactive) | 27.5 µM (inactive) | 35.3 µM (inactive) | 43.8 µM (inactive) | 45.9 µM (inactive) | 34 µM (inactive) | 53.3 µM (inactive) | 51.4 µM (inactive) | 46.1 µM (inactive) | 30.1 µM (inactive) |  | 27.7 µM (inactive) | 45.1 µM (inactive) | 88.3 µM (inactive) | 36.5 µM | 36.2 µM (inactive) | 35.7 µM (inactive) | 59.2 µM (inactive)
9 | CNC(=O)CCNC(=O)CCC(=O)N(C)C | > 100 µM (inactive) | 2.77 µM (inactive) | > 100 µM (inactive) | > 100 µM (inactive) | > 100 µM (inactive) | > 100 µM (inactive) | > 100 µM (inactive) | > 100 µM (inactive) | > 100 µM (inactive) | 15.7 µM (inactive) | > 100 µM (inactive) | > 100 µM (inactive) | > 100 µM (inactive) |  | > 100 µM (inactive) |  | > 100 µM | > 100 µM (inactive) | > 100 µM (inactive) | > 100 µM (inactive)
10 | COC(=O)C1c2c(c3ccccc3n2C(=O)OC)CCN2CCC1C(S(=O)(=O)c1ccccc1)C2=O (configuration not stated) | 40.5 µM (inactive) | 89.3 µM (inactive) | > 100 µM (inactive) | > 100 µM (inactive) | > 100 µM (inactive) | > 100 µM (inactive) | 70.3 µM (inactive) | > 100 µM (inactive) | > 100 µM (inactive) | > 100 µM (inactive) | > 100 µM (inactive) |  | > 100 µM (inactive) | > 100 µM (inactive) | > 100 µM (inactive) | > 100 µM (inactive) | > 100 µM | > 100 µM (inactive) | > 100 µM (inactive) | > 100 µM (inactive)
11 | CSc1ccc2c(cc1=O)[C@@H](NC(C)=O)CCc1cc(O)c(O)c(O)c1-2 | 13.2 µM (inactive) | 16.2 µM (inactive) | 16.3 µM (inactive) | 36.1 µM (inactive) | 30.6 µM (inactive) | > 100 µM (inactive) | 18 µM (inactive) | 18.3 µM (inactive) | 10.4 µM (inactive) | 57 µM (inactive) | > 100 µM (inactive) | 17.6 µM (inactive) | 9.82 µM (inactive) | 4.98 µM (inactive) | 32.4 µM (inactive) | 37.2 µM (inactive) | 17.5 µM | 32.9 µM (inactive) | 19.1 µM (inactive) | 
12 | COc1cc(/N=C(\N)N=C(N)N)c2ncccc2c1 |  | 72.8 µM (inactive) | 98.2 µM (inactive) | > 100 µM (inactive) | > 100 µM (inactive) | > 100 µM (inactive) | > 100 µM (inactive) | 45.3 µM (inactive) | > 100 µM (inactive) | 44.7 µM (inactive) | > 100 µM (inactive) | > 100 µM (inactive) | > 100 µM (inactive) |  | 39.9 µM (inactive) | > 100 µM (inactive) | > 100 µM | > 100 µM (inactive) | > 100 µM (inactive) | 46.8 µM (inactive)
13 | CCOC(=O)CC1c2ccc(O)cc2OC(=O)C1c1ccc(N)cc1 (configuration not stated) | > 100 µM (inactive) | 86.7 µM (inactive) | 98.4 µM (inactive) | > 100 µM (inactive) | > 100 µM (inactive) | > 100 µM (inactive) | 4.34 µM (inactive) | > 100 µM (inactive) | > 100 µM (inactive) | > 100 µM (inactive) | > 100 µM (inactive) |  | > 100 µM (inactive) | > 100 µM (inactive) | > 100 µM (inactive) | > 100 µM (inactive) | > 100 µM | > 100 µM (inactive) | 95.9 µM (inactive) | 56.6 µM (inactive)
14 | NNC1=N/C(=C\c2ccccc2O)C(=O)N1 | 21.5 µM (inactive) | 35.3 µM (inactive) | 31 µM (inactive) | 48.1 µM (inactive) | 34.4 µM (inactive) | 34.9 µM (inactive) | 48.5 µM (inactive) | 35.5 µM (inactive) | 61.4 µM (inactive) | 43.9 µM (inactive) | 60.8 µM (inactive) |  | 53.6 µM (inactive) | 9.12 µM (inactive) | 35 µM (inactive) | 49.2 µM (inactive) | 6.31 µM | 63.8 µM (inactive) | 27.6 µM (inactive) | 25.4 µM (inactive)
15 | Cn1c2c(c3ccccc31)CCN=C2C1CCCOC1=O (configuration not stated) |  | > 100 µM (inactive) | > 100 µM (inactive) | > 100 µM (inactive) | > 100 µM (inactive) | > 100 µM (inactive) | > 100 µM (inactive) | > 100 µM (inactive) | > 100 µM (inactive) | > 100 µM (inactive) | > 100 µM (inactive) | > 100 µM (inactive) | > 100 µM (inactive) |  | > 100 µM (inactive) | > 100 µM (inactive) | > 100 µM | > 100 µM (inactive) | > 100 µM (inactive) | > 100 µM (inactive)
16 | CCc1nc(N)nc(N)c1-c1ccc(Cl)c([N+]#N)c1 | 23.1 µM (inactive) | 38.7 µM (inactive) | > 100 µM (inactive) | 41 µM (inactive) | 41.8 µM (inactive) | 80.2 µM (inactive) | 82 µM (inactive) | 38.1 µM (inactive) | 38.7 µM (inactive) | > 100 µM (inactive) | > 100 µM (inactive) | > 100 µM (inactive) | 33.3 µM (inactive) |  | 46.2 µM (inactive) | > 100 µM (inactive) | 28.8 µM | > 100 µM (inactive) | 66.8 µM (inactive) | 44.3 µM (inactive)
